US20230174530A1, “N-(PHENYLAMINOCARBONYL) TETRAHYDRO-ISOQUINOLINES AND RELATED COMPOUNDS AS MODULATORS OF GPR65” (PATHIOS THERAPEUTICS LIMITED, priority 2020, published 2023)

target: T1, human recombinant GPR65 (Homo sapiens, UniProt Q8IYL9); assay: Human GPR65 cAMP HTRF antagonist assay; assay type: cell-based; settings: 1321N1-hrGPR65 cells stimulated at assay pH 7.2; suppression of cAMP rise; read-out: hGPR65 IC50
T1 construct: host or cells: 1321N1 human astrocytoma cells (1321N1-hrGPR65)
Protocol: Human GPR65 Cyclic Adenosine Monophosphate (cAMP) Homogeneous Time Resolved Fluorescence (HTRF) Antagonist Assay Procedure
IC50 data was obtained by the following procedure:
1321N1 human astrocytoma cells stably expressing human recombinant GPR65 (1321N1-hrGPR65 cells, EuroscreenFast) were cultured according to the vendor's instructions.
Compounds were tested for their ability to antagonise GPR65, through measuring the concentration of cytoplasmic cAMP following treatment of the cells at a pH of 7.2 to activate GPR65 signalling and addition of the compound to be tested. The extent to which the expected rise in cAMP concentration upon GPR65 activation was suppressed by the added compound is indicative of its potency. The assay was carried out according to EuroscreenFast assay methodology as follows.
On the day of the assay, test compounds were added to 384-well, low volume, white microtiter plates by acoustic dispensing. KRH buffer (5 mM KCl, 1.25 mM MgSO4, 124 mM NaCl, 25 mM HEPES, 13.3 mM Glucose, 1.25 mM KH2PO4 and 1.45 mM CaCl2) was adjusted to pH 6.5, pH 7.6 and pH 8.4 by adding NaOH. 1321N1-hGPR65 cells were rapidly thawed and diluted in KRH, pH 7.6 prior to centrifugation at 300×g for 5 min and resuspension in assay buffer (KRH, pH 7.6, supplemented with 1 mM 3-isobutyl-1-methylxanthine (IBMX) and 200 μM ethylenediaminetetraacetic acid (EDTA)). Cells were added to assay plates at a density of 2,000 cells per well in a volume of 5 μl. Assay plates were briefly centrifuged at 100×g and then incubated at room temperature for 30 min. Cells were stimulated by the addition of 5 μL KRH, pH 6.5, to achieve an assay pH of 7.2, while control wells received 5 μl KRH, pH 8.4 to achieve an assay pH of 7.9. Assay plates were briefly centrifuged at 100×g and then incubated at room temperature for 30 min.
Accumulation of cAMP was detected by cAMP HTRF kit (Cisbio). d2-labeled cAMP and cryptate-labeled anti-cAMP antibody in Lysis and Detection Buffer (Cisbio) were added to assay plates, and the plates were incubated at room temperature for 1 h. HTRF measurements were performed using a Pherastar FSX instrument. Acceptor and donor emission signals were measured at 665 nm and 620 nm, respectively, and HTRF ratios were calculated as signal665 nm/signal620 nm×10^4. Data were normalised to high and low control values and fitted with 4-parameter logistic regression to determine hGPR65 IC50 values for the test compounds, which are shown in Table 1.

T1 sequence (Q8IYL9 whole entry): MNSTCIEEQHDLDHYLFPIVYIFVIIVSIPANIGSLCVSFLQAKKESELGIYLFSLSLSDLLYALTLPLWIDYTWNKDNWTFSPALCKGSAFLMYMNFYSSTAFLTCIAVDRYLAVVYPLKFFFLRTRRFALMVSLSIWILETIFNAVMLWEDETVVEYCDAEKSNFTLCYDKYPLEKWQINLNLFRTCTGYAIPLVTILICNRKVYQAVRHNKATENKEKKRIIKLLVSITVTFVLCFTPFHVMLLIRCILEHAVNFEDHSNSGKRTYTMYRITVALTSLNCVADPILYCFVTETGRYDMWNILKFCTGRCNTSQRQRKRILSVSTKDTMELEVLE

IC50 [µM] | SMILES
0.5 to 5 | O=C(Nc1ccc(Cl)c(Cl)c1)N1CCc2ncncc2C1 [Compound 1, N-(3,4-Dichlorophenyl)-7,8-dihydropyrido[4,3-d]pyrimidine-6(5H)-carboxamide]
> 5 | O=C(Nc1ccc(Cl)cc1)N1CCc2ncncc2C1 [Compound 2, N-(4-Chlorophenyl)-7,8-dihydropyrido[4,3-d]pyrimidine-6(5H)-carboxamide]
> 5 | O=C(Nc1cccc(Cl)c1)N1CCc2ncncc2C1 [Compound 3, N-(3-Chlorophenyl)-7,8-dihydropyrido[4,3-d]pyrimidine-6(5H)-carboxamide]
> 5 | O=C(Nc1ccc(C(F)(F)F)cc1)N1CCc2ncncc2C1 [Compound 4, N-(4-(Trifluoromethyl)phenyl)-7,8-dihydropyrido[4,3-d]pyrimidine-6(5H)-carboxamide]
0.5 to 5 | O=C(Nc1ccc(Cl)c(C(F)(F)F)c1)N1CCc2ncncc2C1 [Compound 5, N-(4-Chloro-3-(trifluoromethyl)phenyl)-7,8-dihydropyrido[4,3-d]pyrimidine-6(5H)-carboxamide]
0.5 to 5 | O=C(Nc1ccc(C(F)(F)F)c(Cl)c1)N1CCc2ncncc2C1 [Compound 6, N-(3-Chloro-4-(trifluoromethyl)phenyl)-7,8-dihydropyrido[4,3-d]pyrimidine-6(5H)-carboxamide]
0.5 to 5 | O=C(Nc1ccc(Cl)c(C(F)(F)F)c1)N1CCc2cncnc2C1 [Compound 7, N-(4-Chloro-3-(trifluoromethyl)phenyl)-5,8-dihydropyrido[3,4-d]pyrimidine-7(6H)-carboxamide]
> 5 | O=C(Nc1ccc(Cl)c(Cl)c1)N1CCc2cncnc2C1 [Compound 8, N-(3,4-Dichlorophenyl)-5,8-dihydropyrido[3,4-d]pyrimidine-7(6H)-carboxamide]
> 5 | O=C(Nc1ccc(C(F)(F)F)c(Cl)c1)N1CCc2cncnc2C1 [Compound 9, N-(3-Chloro-4-(trifluoromethyl)phenyl)-5,8-dihydropyrido[3,4-d]pyrimidine-7(6H)-carboxamide]
0.5 to 5 | O=C(Nc1ccc(C(F)(F)F)c(Cl)c1)N1CCc2ccccc2C1 [Compound 10, N-(3-Chloro-4-(trifluoromethyl)phenyl)-3,4-dihydroisoquinoline-2(1H)-carboxamide]
0.5 to 5 | O=C(Nc1ccc(Cl)c(C(F)(F)F)c1)N1CCc2ccccc2C1 [Compound 11, N-(4-Chloro-3-(trifluoromethyl)phenyl)-3,4-dihydroisoquinoline-2(1H)-carboxamide]
0.5 to 5 | O=C(Nc1ccc(Cl)c(Cl)c1)N1CCc2cnccc2C1 [Compound 12, N-(3,4-Dichlorophenyl)-3,4-dihydro-2,6-naphthyridine-2(1H)-carboxamide]
0.5 to 5 | O=C(Nc1ccc(Cl)c(C(F)(F)F)c1)N1CCc2cnccc2C1 [Compound 13, N-(4-Chloro-3-(trifluoromethyl)phenyl)-3,4-dihydro-2,6-naphthyridine-2(1H)-carboxamide]
< 0.5 | O=C(Nc1ccc(C(F)(F)F)c(Cl)c1)N1CCc2cnccc2C1 [Compound 14, N-(3-Chloro-4-(trifluoromethyl)phenyl)-3,4-dihydro-2,6-naphthyridine-2(1H)-carboxamide]
0.5 to 5 | O=C(Nc1ccc(Cl)c(Cl)c1)N1CCc2ccncc2C1 [Compound 15, N-(3,4-Dichlorophenyl)-3,4-dihydro-2,7-naphthyridine-2(1H)-carboxamide]
0.5 to 5 | O=C(Nc1ccc(Cl)c(C(F)(F)F)c1)N1CCc2ccncc2C1 [Compound 16, N-(4-Chloro-3-(trifluoromethyl)phenyl)-3,4-dihydro-2,7-naphthyridine-2(1H)-carboxamide]

IC50 [µM] | SMILES
0.5 to 5 | O=C(Nc1ccc(C(F)(F)F)c(Cl)c1)N1CCc2ccncc2C1 [Compound 17, N-(3-Chloro-4-(trifluoromethyl)phenyl)-3,4-dihydro-2,7-naphthyridine-2(1H)-carboxamide]
> 5 | O=C(Nc1ccc(Cl)c(Cl)c1)N1CCc2cccnc2C1 [Compound 18, N-(3,4-Dichlorophenyl)-5,8-dihydro-1,7-naphthyridine-7(6H)-carboxamide]
0.5 to 5 | O=C(Nc1ccc(C(F)(F)F)c(Cl)c1)N1CCc2cccnc2C1 [Compound 19, N-(3-Chloro-4-(trifluoromethyl)phenyl)-5,8-dihydro-1,7-naphthyridine-7(6H)-carboxamide]
> 5 | O=C(Nc1ccc(Cl)c(Cl)c1)N1CCc2ncccc2C1 [Compound 20, N-(3,4-Dichlorophenyl)-7,8-dihydro-1,6-naphthyridine-6(5H)-carboxamide]
> 5 | O=C(Nc1ccc(Cl)c(C(F)(F)F)c1)N1CCc2ncccc2C1 [Compound 21, N-(4-Chloro-3-(trifluoromethyl)phenyl)-7,8-dihydro-1,6-naphthyridine-6(5H)-carboxamide]
> 5 | O=C(Nc1ccc(C(F)(F)F)c(Cl)c1)N1CCc2ncccc2C1 [Compound 22, N-(3-Chloro-4-(trifluoromethyl)phenyl)-7,8-dihydro-1,6-naphthyridine-6(5H)-carboxamide]
> 5 | O=C(Nc1ccc(Cl)c(Cl)c1)N1CCc2nccnc2C1 [Compound 23, N-(3,4-Dichlorophenyl)-7,8-dihydropyrido[3,4-b]pyrazine-6(5H)-carboxamide]
> 5 | O=C(Nc1ccc(C(F)(F)F)c(Cl)c1)N1CCc2nccnc2C1 [Compound 24, N-(3-Chloro-4-(trifluoromethyl)phenyl)-7,8-dihydropyrido[3,4-b]pyrazine-6(5H)-carboxamide]
0.5 to 5 | O=C(Nc1ccc(Cl)c(C(F)(F)F)c1)N1CCc2oncc2C1 [Compound 25, N-(4-Chloro-3-(trifluoromethyl)phenyl)-6,7-dihydroisoxazolo[4,5-c]pyridine-5(4H)-carboxamide]
0.5 to 5 | O=C(Nc1ccc(C(F)(F)F)c(Cl)c1)N1CCc2oncc2C1 [Compound 26, N-(3-Chloro-4-(trifluoromethyl)phenyl)-6,7-dihydroisoxazolo[4,5-c]pyridine-5(4H)-carboxamide]
0.5 to 5 | Cc1cccc2c1CN(C(=O)Nc1ccc(Cl)c(Cl)c1)CC2 [Compound 27, N-(3,4-Dichlorophenyl)-8-methyl-3,4-dihydroisoquinoline-2(1H)-carboxamide]
> 5 | Cc1cccc2c1CN(C(=O)Nc1ccc(Cl)c(C(F)(F)F)c1)CC2 [Compound 28, N-(4-Chloro-3-(trifluoromethyl)phenyl)-8-methyl-3,4-dihydroisoquinoline-2(1H)-carboxamide]
0.5 to 5 | Cc1cccc2c1CN(C(=O)Nc1ccc(C(F)(F)F)c(Cl)c1)CC2 [Compound 29, N-(3-Chloro-4-(trifluoromethyl)phenyl)-8-methyl-3,4-dihydroisoquinoline-2(1H)-carboxamide]
< 0.5 | O=C(Nc1ccc(C(F)(F)F)c(Cl)c1)N1CCc2ccc(Cl)cc2C1 [Compound 30, 7-Chloro-N-(3-chloro-4-(trifluoromethyl)phenyl)-3,4-dihydroisoquinoline-2(1H)-carboxamide]
< 0.5 | O=C(Nc1ccc(Cl)c(Cl)c1)N1CCc2ccc(F)cc2C1 [Compound 31, N-(3,4-Dichlorophenyl)-7-fluoro-3,4-dihydroisoquinoline-2(1H)-carboxamide]
0.5 to 5 | O=C(Nc1ccc(Cl)c(C(F)(F)F)c1)N1CCc2ccc(F)cc2C1 [Compound 32, N-(4-Chloro-3-(trifluoromethyl)phenyl)-7-fluoro-3,4-dihydroisoquinoline-2(1H)-carboxamide]
